From US20040167217A1, “Neuroprotective effects of polyphenolic compounds” (priority 2003, published 2004)
“Also recorded” adds a separate entry of the source.

Experiments:
cerebellar granule cells [1] = assay: Oligonucleosome formation (cell death detection ELISA), serum deprivation; assay type: cell-based, rat; settings: for apoptosis (oligonucleosome formation) induced by the absence of FCS: curcumin 1, 5, 10, 25 and 50 μM
Method: (§1) Primary cultures of cortical neurons and cerebellar granule cells were prepared. In brief, cortical neurons were prepared from fetal brain from 17-day pregnant rat and cerebellar granule cells from 8-day old rats. Brain tissues were dissociated through trypsinization in 0.025% trypsin solution and trituration. Dissociated cells were collected through centrifugation and resuspended in standard medium containing: basal Eagle's medium containing 10% fetal bovine serum (FCS), 2 mM glutamine, genatmycin 0.05 mg/ml, and 25 mM KCI. Cells were plated at a density of 1.8×10^6 onto 35-mm dishes coated with 10 micrograms/ml ply-L-lysine.
(§2) To induce programmed cell death in […] granule cells, two different experimental well-established paradigms: serum deprivation and low K^+, were performed. In particular, neurons were cultured after their plating in serum free medium containing 25 mM KCI or in standard medium for 6 days and then agitating them in a medium containing 10% FCS and 5 mM KCI. In both of these paradigms, control cells were grown in medium containing 10% FCS and 25 mM KCI.
(§3) To induce apoptosis in cortical neurons, β-amyloid peptide (1-40), a molecule related to the pathogenesis of Alzheimer disease and a well known inducer of apoptosis was added.

cerebellar granule cells [2] = assay: Oligonucleosome formation (cell death detection ELISA), low K+; assay type: cell-based, rat; settings: for apoptosis (oligonucleosome formation) induced by low extracellular K+: curcumin 1, 5, 10, 25 and 50 μM
Method: as §1, §2, §3

cortical neurons = assay: Oligonucleosome formation in cortical neurons exposed to β-amyloid peptide (1-40); assay type: cell-based, rat; settings: for apoptosis (oligonucleosome formation) induced by β-amyloid peptide (1-40): 20 μM β-amyloid peptide (1-40), parallel treatment
Method: as §1
An inhibitor of HO-1 activity may be used to determine whether or not the effects of the polyphenolic compounds or analogs thereof are induced through the heme oxygenase signaling pathway. To understand the relevance of the induction of the stress protein HO-1 on the neuroprotective effects afforded by curcumin we treated cortical neuron exposed to β-amyloid with curcumin ([…]) alone or in the presence of tinprotoporphirine IX (SnPP) 40 μM, a specific inhibitor of HO-1 activity. The same treatment was performed in cortical neurons exposed to GOX-induced cellular damage.

HO-1 [3] = assay: HO-1 protein expression, Western blot, cortical neurons; assay type: cell-based, rat
Method: HO-1 and hsp70 protein levels were assessed by Western immunoblot technique using a polyclonal rabbit anti-HO-1 antibody (Stressgen; Victoria, Canada), and a polyclonal rabbit hsp70 antibody. Briefly, an equal amount of proteins (30 μg) for each sample was separated by SDS-polyacrylamide gel electrophoresis and transferred to nitrocellulose membranes, and the non-specific antibodies were blocked with 3% non-fat dried milk in PBS. Membranes were then probed with a polyclonal rabbit anti HO-1 antibody (Stressgen) (1:1000 dilution in Tris-buffered saline, pH 7,4) or with a monoclonal rabbit anti-Hsp72 antibody (Amersham Pharmacia Biotechnology) (1:1000 dilution in Tris-buffered saline, pH 7,4), that recognizes only the Hsp 70 inducible isoform. Blots were then visualized using an amplified alkaline phosphate kit from Sigma.

HO-1 [4] = assay: HO-1 protein expression, Western blot, astrocytes; assay type: cell-based
Method: Type 1 astrocytes (DI TNC1) were purchased from the American Type Culture Collection (Manassas, VA) and cultured in Dulbecco's modified Eagle's medium containing 4.5 g/l glucose, 2 mM glutamine, 100 units/ ml penicillin, and 0.1 mg/ml streptomycin and supplemented with 10% fetal bovine serum. Cells were grown in 75-cm^2 flasks and maintained at 37° C. in a humidified atmosphere of air and 5% CO2. Confluent cells were exposed to various concentrations of curcumin, CAPE, or Curcumin-95. After each treatment (6 or 24 h), cells were harvested for the determination of heme oxygenase activity, HO-1 protein expression, and intracellular glutathione. Astrocytes growing in 24 wells were exposed to polyphenolic compounds, and cell viability was determined at 24 h. After treatment with curcumin, or CAPE, samples of astrocytes were also analyzed for HO-1 protein expression using a Western immunoblot technique described previously^18,19. Briefly, an equal amount of proteins (30 μg) for each sample was separated by SDS-polyacrylamide gel electrophoresis and transferred overnight to nitrocellulose membranes, and the non-specific binding of antibodies was blocked with 3% non-fat dried milk in PBS. Membranes were then probed with a polyclonal rabbit anti-HO-1 antibody (Stressgen) (1:1000 dilution in Tris-buffered saline, pH 7.4) for 2 h at room temperature. After three washes with PBS, blots were visualized using an amplified alkaline phosphatase kit from Sigma (Extra-3A), and the relative density of bands was analyzed by the use of an imaging densitometer (model GS-700; Bio-Rad, Herts, UK). Blots shown are representative of three independent experiments.

[5] = tested on: Type 1 astrocytes (DI TNC1); assay: Intracellular glutathione (GSH, GSSG) in astrocytes; assay type: cell-based
Method: Type 1 astrocytes (DI TNC1) were purchased from the American Type Culture Collection (Manassas, VA) and cultured in Dulbecco's modified Eagle's medium containing 4.5 g/l glucose, 2 mM glutamine, 100 units/ ml penicillin, and 0.1 mg/ml streptomycin and supplemented with 10% fetal bovine serum. Cells were grown in 75-cm^2 flasks and maintained at 37° C. in a humidified atmosphere of air and 5% CO2. Confluent cells were exposed to various concentrations of curcumin, CAPE, or Curcumin-95. After each treatment (6 or 24 h), cells were harvested for the determination of heme oxygenase activity, HO-1 protein expression, and intracellular glutathione. […] GSH and GSSG levels were measured after 6- and 24- h exposure of astrocytes to curcumin and CAPE using a method previously described^19,20. Briefly, cells harvested in cold PBS were freeze-thawed three times, and an aliquot of this suspension was added to a buffer solution containing 12 mM EDTA and 10 mM 5,5′-dithiobis-(2-nitrobenzoic acid). Total glutathione was measured spectrophotometrically (optical density=412nm) using the glutathione reductase-recycling assay. To determine the amount of GSSG, an aliquot of the cell suspension was added to an equal volume of buffer containing EDTA and N-ethylmaleimide (10 mM). The sample was mixed and centrifuged, and the supernatant was passed through a C18 Sep-Pak cartridge (Waters, Milford, Mass.) to remove the excess N-ethylmaleimide. The sample was added to a cuvette containing 5,5′-dithiobis-(2-nitrobenzoic acid) and glutathione reductase, and the assay was performed as for the measurement of total glutathione. Intracellular glutathione was determined by comparison with a standard curve obtained with GSH and GSSG solutions and was expressed as nmoles/mg of protein.

Structure (SMILES)	concentration with strongest / most effective anti-apoptotic effect (cerebellar granule cells [1])	apoptosis (oligonucleosome formation) induced by the absence of FCS (cerebellar granule cells [1])	concentration with strongest / most effective anti-apoptotic effect (cerebellar granule cells [2])	apoptosis (oligonucleosome formation) induced by low extracellular K+ (cerebellar granule cells [2])	apoptosis (oligonucleosome formation) induced by β-amyloid peptide (1-40) (cortical neurons)	HO-1 protein expression / HO-1 induction (HO-1 [3])	intracellular GSH ([5]; 6 h, 50 μM)	intracellular GSH ([5]; 6 h, 15 and 30 μM)	also measured
O=C(/C=C/c1ccc(O)c(O)c1)OCCc1ccccc1 [CAPE, Caffeic acid phenethyl ester]	25 µM	strong dose-dependent anti-apoptotic effect	25 µM	strong dose-dependent anti-apoptotic effect	strong dose-dependent anti-apoptotic effect	strongly induce HO-1	did not affect GSH	elevation of GSH	concentration most effective in protecting from apoptosis (cortical neurons; β-amyloid): 25 µM; concentration of maximal HO-1 protein expression (HO-1 [4]): 30 µM; HO-1 protein levels (HO-1 [4]; low concentrations 15-50 μM): substantial increase; intracellular GSH ([5]; 24 h, 50 μM): significant depletion of GSH; intracellular GSSG ([5]; 24 h, 50 μM): concomitant elevation in GSSG; intracellular GSH ([5]; 24 h, 15 and 30 μM): marked reduction
COc1cc(C=CC(=O)CC(=O)C=Cc2ccc(O)c(OC)c2)ccc1O [curcumin, 1,7-bis[4-Hydroxy-3-methoxyphenyl]-1,6-heptadiene-3,5-dione]	25 µM	significantly reduced apoptosis	25 µM	significantly reduced apoptosis	able to overcome much of the cellular damage caused by β-amyloid; also recorded: dramatically protect the cells against apoptosis	directly correlated with HO-1 protein levels	without affecting the GSH content	significant increase	apoptosis induced by β-amyloid in the presence of HO-1 inhibitor SnPP (cortical neurons; curcumin plus SnPP 40 μM): only able to partially reduce the apoptotic effects; HO-1 protein expression (HO-1 [4]; 50-100 μM): failed to increase HO-1 expression; HO-1 protein expression (HO-1 [4]; 6 h, 15 and 30 μM): marked up-regulation of HO-1 protein; HO-1 protein expression (HO-1 [4]; 24 h after treatment): over-expression of HO-1 was also found; glutathione oxidation (GSSG) ([5]; 6 h, 50 μM): caused oxidation; intracellular GSSG ([5]; 6 h, 15 and 30 μM): significant increase; intracellular GSH ([5]; 24 h, 15, 30, and 50 μM): concentration-dependent decrease in GSH; intracellular GSSG ([5]; 24 h, 15, 30, and 50 μM): gradual and substantial increase in GSSG levels
